According to US20060141587A1, “Process for the preparation of L-3, 4-dihydroxyphenylalanine by aerobic fermentation of a microorganism” (DSM IP Assets B.V., priority 2002, published 2006):

What was measured:
[1] = Stability of L-dopa during fed-batch fermentation with and without pH-shift; assay type: physicochemical, Escherichia coli
Method: Cultivations in a fermentor were conducted in a 2.0 L bioreactor (Labfors, Infors; Switzerland) with 10% inoculation; which was cultivated at 33° C. The cultivation started at pH 6.7. The mineral fermentation medium (see composition above) was directly sterilized in the bioreactor together with the calibrated pH- and Oxygen-sensors.
pH was controlled by 17.5% NH4OH (1:2 diluted) and a 5 N KOH solution. A separate glucose feed (500 g·^−1) was started when the OD620nm was higher than 5. At OD620nm 10, which was reached after about 14 hours Isopropyl-beta-D-thiogalactopyranoside (IPTG) was added to a final concentration of 0.1 mM. […]
Biomass (OD620nm) and L-dopa concentrations were determined by HPLC analysis (see example 5 for HPLC conditions) as a function of time (see: Table 1). The L-dopa concentration at 43 hours was related to 10.
A fermentation was performed describes as in example 6 with the following differences:
At OD620nm 5 (reached after 7 hours) IPTG was added.
The L-dopa concentration reached after 32 hours was related to 10.

[2] = Stability of L-dopa in fermentation broth adjusted to different pH, stored at room temperature (HPLC); assay type: physicochemical; conditions: for L-dopa concentration, fermentation broth at pH 4.5 (sample 4): pH 4.5, room temperature; for L-dopa concentration, fermentation broth at pH 4.5 (sample 4) / L-dopa concentration, fermentation broth at pH 5.5 (sample 3) / L-dopa concentration, fermentation broth at pH 6.5 (sample 2) / L-dopa concentration, fermentation broth at pH 7.5 (sample 1): broth at pH 4.5 related to 10; for L-dopa concentration, fermentation broth at pH 5.5 (sample 3): pH 5.5, room temperature; for L-dopa concentration, fermentation broth at pH 6.5 (sample 2): pH 6.5, room temperature; for L-dopa concentration, fermentation broth at pH 7.5 (sample 1): pH 7.5, room temperature
Method: (§1) To perform the HPLC analysis, the HPLC 1100 system of Aegilent (Waldbronn, Germany) with a Diode Array Detector was used. The compounds were measured at a wavelength of 200 nm. A Nucleosil-120-5-C18 column (250×4 mm) from Macherey-Nagel was used as the solid phase. The column was eluted using a gradient starting with eluent A (10 mM H3PO4) and eluent B (100% acetonitril). Gradient: 0 min 2% B, 25 min up to 90% B, 27 min to 30 min 2% B. The elution rate was set at 1.2 ml/min, the column temperature was set at 40° C.
A sample of the fermentation broth in which L-dopa is present, prepared as described in example 6, which had been adjusted to pH 7.5 (sample 1), pH 6.5 (sample 2), pH 5.5 (sample 3) and pH 4.5 (sample 4) was used. The samples 1, 2, 3 and 4 were stored at room temperature for 600 hours and L-dopa concentrations were determined at several points in time (up to 600 hours). L-dopa concentrations were determined by HPLC analysis as a function of time (see: Table 4) with the […], i.e. fermentation broth at pH 4.5, related to 10.

[3] = Storage stability of L-dopa in fermentation broth, extracted water phase and reextraction medium (reactive extraction, HPLC); assay type: physicochemical; conditions: for change of L-dopa concentration during storage: room temperature, up to 600 h; for relative L-dopa concentration of untreated fermentation broth (sample A, pH = 7.5): pH 7.5, stored at room temperature; for relative L-dopa concentration of water phase of fermentation broth extracted by kerosene/D2EHPA (sample B, pH acidic): stored at room temperature; for relative L-dopa concentration of re-extracted organic phase by KCl (sample C, pH = 6.3): pH 6.3, stored at room temperature
Method: as §1
A sample of the fermentation broth in which L-dopa is present, prepared as described in example 6, which had been adjusted to pH 7,5 (sample A), was used. 5 ml kerosene containing 10% D2EHPA (pH acidic) was mixed vigorously with the same volume of sample A for 30 seconds on a vortex mixer. After separation of the two phases (about 10 minutes) the water phase containing L-dopa, the extraction medium (sample B) was stored at room temperature. L-dopa dissolved in the organic phase was reextracted by mixing 2 ml of the organic phase with 1 ml of 1 M KCl (pH=6.3) by shaking vigorously for 30s. After separation of the two phases (about 10 minutes), the water phase containing L-dopa, the reextraction medium (sample C) was stored at room temperature. The samples A, B and C were stored at room temperature for 600 hours and L-dopa concentrations were determined at several points in time (up to 600 hours). L-dopa concentrations were determined by HPLC analysis as a function of time (see: Table 3).

N[C@@H](Cc1ccc(O)c(O)c1)C(=O)O [L-dopa, L-3,4-dihydroxyphenylalanine]
stability of L-dopa in the fermentation ([1]; fermentation at pH 6.7, no pH-shift): less stable | stability of L-dopa in the fermentation ([1]; fermentation with pH-shift from pH 6.7 to pH 5.8): stable | L-dopa concentration, fermentation broth at pH 4.5 (sample 4) ([2]; 24 h): 10 | L-dopa concentration, fermentation broth at pH 4.5 (sample 4) ([2]; 96 h): 10 | L-dopa concentration, fermentation broth at pH 4.5 (sample 4) ([2]; 168 h): 10 | L-dopa concentration, fermentation broth at pH 4.5 (sample 4) ([2]; 336 h): 10 | L-dopa concentration, fermentation broth at pH 4.5 (sample 4) ([2]; 408 h): 10 | L-dopa concentration, fermentation broth at pH 4.5 (sample 4) ([2]; 504 h): 10 | L-dopa concentration, fermentation broth at pH 4.5 (sample 4) ([2]; 600 h): 10 | L-dopa concentration, fermentation broth at pH 5.5 (sample 3) ([2]; 24 h): 9 | L-dopa concentration, fermentation broth at pH 5.5 (sample 3) ([2]; 96 h): 9 | L-dopa concentration, fermentation broth at pH 5.5 (sample 3) ([2]; 168 h): 9 | L-dopa concentration, fermentation broth at pH 5.5 (sample 3) ([2]; 336 h): 9 | L-dopa concentration, fermentation broth at pH 5.5 (sample 3) ([2]; 408 h): 9 | L-dopa concentration, fermentation broth at pH 5.5 (sample 3) ([2]; 504 h): 8 | L-dopa concentration, fermentation broth at pH 5.5 (sample 3) ([2]; 600 h): 8 | L-dopa concentration, fermentation broth at pH 6.5 (sample 2) ([2]; 24 h): 7 | L-dopa concentration, fermentation broth at pH 6.5 (sample 2) ([2]; 96 h): 7 | L-dopa concentration, fermentation broth at pH 6.5 (sample 2) ([2]; 168 h): 7 | L-dopa concentration, fermentation broth at pH 6.5 (sample 2) ([2]; 336 h): 5 | L-dopa concentration, fermentation broth at pH 6.5 (sample 2) ([2]; 408 h): 5 | L-dopa concentration, fermentation broth at pH 6.5 (sample 2) ([2]; 504 h): 4 | L-dopa concentration, fermentation broth at pH 6.5 (sample 2) ([2]; 600 h): 4 | L-dopa concentration, fermentation broth at pH 7.5 (sample 1) ([2]; 24 h): 6 | L-dopa concentration, fermentation broth at pH 7.5 (sample 1) ([2]; 96 h): 6 | L-dopa concentration, fermentation broth at pH 7.5 (sample 1) ([2]; 168 h): 5 | L-dopa concentration, fermentation broth at pH 7.5 (sample 1) ([2]; 336 h): 4 | L-dopa concentration, fermentation broth at pH 7.5 (sample 1) ([2]; 408 h): 3 | L-dopa concentration, fermentation broth at pH 7.5 (sample 1) ([2]; 504 h): 3 | L-dopa concentration, fermentation broth at pH 7.5 (sample 1) ([2]; 600 h): 2 | effect of pH of the fermentation broth on stability of L-dopa ([2]; pH 7.5 to 4.5, room temperature, up to 600 h): lower pH values of the fermentation broth increase the stability of L-dopa | change of L-dopa concentration during storage ([3]; after extraction of the broth with kerosene/D2EHPA (sample B, acidic pH)): decrease of concentration of L-dopa was nearly prevented | change of L-dopa concentration during storage ([3]; after re-extraction with KCl (sample C, pH 6.3)): no decrease of L-dopa concentration was observed | change of L-dopa concentration during storage ([3]; fermentation broth without kerosene/D2EHPA extraction (sample A, pH 7.5)): decreases during the storage time | relative L-dopa concentration of untreated fermentation broth (sample A, pH = 7.5) ([3]; 24 h): 0.7 | relative L-dopa concentration of untreated fermentation broth (sample A, pH = 7.5) ([3]; 96 h): 0.7 | relative L-dopa concentration of untreated fermentation broth (sample A, pH = 7.5) ([3]; 168 h): 0.6 | relative L-dopa concentration of untreated fermentation broth (sample A, pH = 7.5) ([3]; 336 h): 0.5 | relative L-dopa concentration of untreated fermentation broth (sample A, pH = 7.5) ([3]; 408 h): 0.4 | relative L-dopa concentration of untreated fermentation broth (sample A, pH = 7.5) ([3]; 504 h): 0.4 | relative L-dopa concentration of untreated fermentation broth (sample A, pH = 7.5) ([3]; 600 h): 0.3 | relative L-dopa concentration of water phase of fermentation broth extracted by kerosene/D2EHPA (sample B, pH acidic) ([3]; 24 h): 0.8 | relative L-dopa concentration of water phase of fermentation broth extracted by kerosene/D2EHPA (sample B, pH acidic) ([3]; 96 h): 0.7 | relative L-dopa concentration of water phase of fermentation broth extracted by kerosene/D2EHPA (sample B, pH acidic) ([3]; 168 h): 0.7 | relative L-dopa concentration of water phase of fermentation broth extracted by kerosene/D2EHPA (sample B, pH acidic) ([3]; 336 h): 0.8 | relative L-dopa concentration of water phase of fermentation broth extracted by kerosene/D2EHPA (sample B, pH acidic) ([3]; 408 h): 0.7 | relative L-dopa concentration of water phase of fermentation broth extracted by kerosene/D2EHPA (sample B, pH acidic) ([3]; 504 h): 0.8 | relative L-dopa concentration of water phase of fermentation broth extracted by kerosene/D2EHPA (sample B, pH acidic) ([3]; 600 h): 0.7 | relative L-dopa concentration of re-extracted organic phase by KCl (sample C, pH = 6.3) ([3]; 24 h): 0.3 | relative L-dopa concentration of re-extracted organic phase by KCl (sample C, pH = 6.3) ([3]; 96 h): 0.3 | relative L-dopa concentration of re-extracted organic phase by KCl (sample C, pH = 6.3) ([3]; 168 h): 0.3 | relative L-dopa concentration of re-extracted organic phase by KCl (sample C, pH = 6.3) ([3]; 336 h): 0.4 | relative L-dopa concentration of re-extracted organic phase by KCl (sample C, pH = 6.3) ([3]; 408 h): 0.4 | relative L-dopa concentration of re-extracted organic phase by KCl (sample C, pH = 6.3) ([3]; 504 h): 0.4 | relative L-dopa concentration of re-extracted organic phase by KCl (sample C, pH = 6.3) ([3]; 600 h): 0.4
